Key:
human α7 nAChRs [1] = target: T1, human α7 nAChRs (Homo sapiens, UniProt P36544); test: Two-electrode voltage-clamp recording, wild-type human α7 nAChRs expressed in Xenopus oocytes; format: cell-based; settings: Wild-type α7; for Imax: normalised to the maximum response to acetylcholine
T1 construct: expressed in transfected cells; host or cells: Xenopus laevis oocytes (cRNA injection)
Description: All plasmid constructs used in this study have been described previously.
(§1) Oocytes were isolated from adult female Xenopus laevis following procedures that have been approved by UCL's Biological Services Management Group and the UK Home Office. […] Heterologous expression was achieved by injection of wild-type or mutated α7 cRNA (6–12 ng) into oocyte cytoplasm. Oocytes were injected in a volume of 20–30 nl using a Drummond variable volume microinjector. […] Experiments were performed on oocytes after 3–5 days of incubation.

α7 L247T nAChRs = target: T2, α7 L247T nAChRs (Homo sapiens, UniProt P36544, L270T); test: Two-electrode voltage-clamp recording, human α7 nAChRs containing the L247T mutation in Xenopus oocytes; format: cell-based; settings: for Imax: normalised to the maximum response to acetylcholine
T2 construct: expressed in transfected cells; host or cells: Xenopus laevis oocytes (cRNA injection)
Description: (§2) Site-directed mutagenesis was performed on human nAChR α7 subunit cDNA in plasmid pSP64GL using the QuikChange mutagenesis kit (Stratagene) and verified by nucleotide sequencing. Plasmid pSP64GL containing wild-type or mutated human α7 cDNA was linearized with BamHI and purified with QIAQuik PCR purification kit (Qiagen). In vitro synthesis of cRNA was performed using mMessage mMachine SP6 transcription kit (Life Technologies).
as §1

α7 M260L nAChRs = target: T3, α7 M260L nAChRs (Homo sapiens, UniProt P36544, M283L); test: Two-electrode voltage-clamp recording, human α7 nAChRs containing the M260L mutation in Xenopus oocytes; format: cell-based; settings: for Imax: normalised to the maximum response to acetylcholine
T3 construct: expressed in transfected cells; host or cells: Xenopus laevis oocytes (cRNA injection)
Description: as §2, §1

human α7 nAChRs [2] = target: T1, human α7 nAChRs; format: binding

T3 sequence (P36544 23-502 M283L): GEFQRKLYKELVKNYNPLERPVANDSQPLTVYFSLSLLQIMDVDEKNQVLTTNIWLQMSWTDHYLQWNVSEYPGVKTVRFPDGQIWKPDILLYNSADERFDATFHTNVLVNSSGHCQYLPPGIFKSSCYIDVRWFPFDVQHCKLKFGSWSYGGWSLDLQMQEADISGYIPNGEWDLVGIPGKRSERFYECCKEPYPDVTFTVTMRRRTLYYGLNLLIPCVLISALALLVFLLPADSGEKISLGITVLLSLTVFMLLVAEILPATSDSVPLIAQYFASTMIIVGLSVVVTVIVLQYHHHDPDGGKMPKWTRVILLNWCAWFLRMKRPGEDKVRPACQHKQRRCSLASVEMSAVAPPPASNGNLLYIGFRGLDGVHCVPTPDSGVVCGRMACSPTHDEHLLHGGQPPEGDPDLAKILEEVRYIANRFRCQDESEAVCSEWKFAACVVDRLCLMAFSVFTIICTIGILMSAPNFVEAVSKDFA
T2 sequence (P36544 23-502 L270T): as the sequence (P36544 23-502 M283L) above, with L248T, L261M counted along it
T1 sequence (P36544 23-502): as the sequence (P36544 23-502 M283L) above, with L261M counted along it

Row | SMILES | nH (Hill coefficient) (human α7 nAChRs [1]; mean ± SEM) | EC50 (human α7 nAChRs [1]; mean ± SEM, read-out: EC50 (agonist)) [nM] | Imax (human α7 nAChRs [1]) | nH (Hill coefficient) (α7 L247T nAChRs; α7 L247T, mean ± SEM) | EC50 (α7 L247T nAChRs; α7 L247T, mean ± SEM, read-out: EC50 (agonist)) [nM] | Imax (α7 L247T nAChRs; α7 L247T) | nH (Hill coefficient) (α7 M260L nAChRs; α7 M260L, mean ± SEM) | EC50 (α7 M260L nAChRs; α7 M260L, mean ± SEM, read-out: EC50 (agonist)) [nM] | Imax (α7 M260L nAChRs; α7 M260L) | Antagonism of responses to acetylcholine (α7 L247T nAChRs; L247T α7, MLA 1 μM pre- and co-applied, acetylcholine 10 μM) | Antagonism of responses to acetylcholine (α7 M260L nAChRs; M260L α7, MLA 1 μM pre- and co-applied, acetylcholine 1 mM) | Displacement of [3H]-α-bungarotoxin binding (human α7 nAChRs [2])
1 | NS(=O)(=O)c1ccc2c(c1)[C@H]1C=CC[C@H]1[C@@H](c1ccc(Br)cc1)N2 [4BP-TQS, cis-cis-4-(4-bromophenyl)-3a,4,5,9b-tetrahydro-3H-cyclopenta[c]quinoline-8-sulfonamide] | 5.2 ± 0.8 | 4200 ± 300 | 4.4 ± 0.3 | 2.3 ± 0.2 | 30 ± 3 | 1.0 ± 0.1 | 2.3 ± 0.4 | 2500 ± 400 | 9.0 ± 1.2 | – | – | –
2 | CC(=O)OCC[N+](C)(C)C [Acetylcholine, acetylcholine] | 1.4 ± 0.2 | – | 1 | 2.1 ± 0.2 | – | 1 | – | – | 1 | – | – | –
3 | CCN1C[C@]2(COC(=O)c3ccccc3N3C(=O)C[C@H](C)C3=O)CC[C@H](OC)[C@@]34[C@@H]5C[C@H]6[C@H](OC)[C@@H]5[C@](O)(C[C@@H]6OC)[C@@](O)([C@@H](OC)[C@H]23)[C@@H]14 [MLA, methyllycaconitine] | – | – | – | – | – | – | – | – | – | blocked responses to acetylcholine | blocked responses to acetylcholine | complete displacement

— paper PMC4548482 (Neuropharmacology, 2015)
